Data taken from patent publication US9828330B2, “Non-peptide BDNF neurotrophin mimetics” (PHARMATROPHIX, INC., priority 2013, dated 2017).
Several values for one entry are separate records, joined by “and”; a condition that tells them apart may be missing. Equal entries are not always repeated. Where two headings read alike, the source gives them in different places.

Experiments:
[1] = Observations and adverse reactions after intraperitoneal administration in CD-1 mice; type: in vivo; settings: IP 50 mg/kg
Protocol: (§1) In this study, the brain-to-plasma ratio of compounds of the invention was evaluated after intraperitoneal dosing in fasted male CD-1 mice. Test compounds were dosed at 50 mg/kg in sterile water for injection. Plasma and brain homogenate levels were determined at 1 and 3 hours post dose by LC-MS/MS. […] Penetration of the present compounds through the blood-brain barrier allows the compounds to exerts their receptor binding activity to achieve the therapeutic effects.

[2] = Brain-to-plasma ratio after intraperitoneal administration in male CD-1 mice (LC-MS/MS of plasma and brain homogenate); type: in vivo; settings: for Kp at 1 h / Kp at 3 h / concentration at 1 h / concentration at 3 h: male, CD-1, mouse, ip; for Kp at 1 h / Kp at 3 h: brain/plasma
Protocol: as §1
All data are expressed as ng/mL (equivalent to ng/g for calculation of brain:plasma ratio) of the free drug. Samples that were below the limit of quantitation were not used in the calculation of averages.
Brain-to-plasma ratios were determined by dividing the brain concentration in ng/g by the plasma concentration in ng/g.
Brain samples were homogenized with a Virsonic 100 ultrasonic homogenizer. Each brain sample was first weighed, and then an appropriate volume of 20:80 methanol:water was added to make a 4 mL/1 gram sample. Samples were then homogenized on ice, and stored frozen until analysis.
Standards samples were prepared in either CD-1 Mouse plasma containing K2EDTA as an anticoagulant or CD-1 mouse brain homogenate. Working solutions (200 μg/mL and/or 20 μg/mL for each test compound) was prepared in 50:50 ACN:water. Then, a nine-point calibration curve was prepared at concentrations of 2000, 1500, 1000, 500, 100, 50, 20, 10, and 5 ng/mL of each test compound by serial dilution; or for a high-sensitivity method, another nine point calibration curve was prepared at concentrations of 200, 150, 100, 50, 10, 5, 2, 1, and 0.5 ng/mL of each test compound by serial dilution. Standard samples were treated identically to the study samples.
Plasma and brain homogenate samples were extracted via acetonitrile precipitation on a Tomtec Quadra 96-Model 320 liquid handling system in a 96-well plate format.
HPLC Conditions • Instrument: Perkin Elmer series 200 micropumps and Autosampler • Column: Phenomenex Synergi Polar-RP, 4μ, 80A, 50×2.0 mm • Mobile Phase Buffer: 40 mM ammonium formate, pH 3.5 • Aqueous Reservoir (A): 10% buffer, 90% water • Organic Reservoir (B): 10% buffer, 90% acetonitrile • Gradient Program:
• Flow Rate: 400 μL/min • Injection Volume: […], • Run Time: 5.0 min • Column Temperature: ambient • Autosampler Wash Solution #1: ACN:IPA:H2O 40:30:30 (v/v/v) w/0.2% formic acid • Autosampler Wash Solution #2: MeOH:H2O 50:50 (v/v) Mass Spectrometer Conditions (for Calibration Curve from 5 to 2000 ng/mL) • Instrument: PE Sciex API 4000 • Interface: Electrospray (“Turbo Ion Spray”) • Mode: Multiple Reaction Monitoring (MRM) • Gases: CUR 20, GS1 20, GS2 10, CAD Medium, IS 5200 • Source Temperature: 500° C., ihe OFF • Voltages and Ions Monitored*:
Mass Spectrometer Conditions (for Calibration Curve from 0.5 to 200 ng/mL, High Sensitivity Method) • Instrument: PE Sciex API 4000 Q TRAP • Interface: Electrospray (“Turbo Ion Spray”) • Mode: Multiple Reaction Monitoring (MRM) • Gases: CUR 20, GS1 20, GS2 10, CAD Medium, IS 5200 • Source Temperature: 500° C., ihe OFF • Voltages and Ions Monitored*: […]

[3] = 1.0 hr after IP dosing at 50 mg/kg, individual fasted male CD-1 mice, 50 mg/kg
[4] = 1.0 hr after IP dosing at 50 mg/kg, individual mice, 50 mg/kg
[5] = 1.0 hr after IP dosing at 50 mg/kg, mean of mice, 50 mg/kg
[6] = 3.0 hr after IP dosing at 50 mg/kg, individual fasted male CD-1 mice, BLQ = below 0.5 ng/mL, 50 mg/kg
[7] = 3.0 hr after IP dosing at 50 mg/kg, individual mice, 50 mg/kg
[8] = 50 mg/kg, 1.0 hr after IP dosing at 50 mg/kg, mean of mice, read-out: Average B:P Ratio
[9] = 50 mg/kg, 3.0 hr after IP dosing at 50 mg/kg, individual mice, read-out: B:P Ratio
[10] = 50 mg/kg, 3.0 hr after IP dosing at 50 mg/kg, mean of mice (Compound-3: one animal only), read-out: Average B:P Ratio
[11] = plasma, 50 mg/kg, 1.0 hr after IP dosing at 50 mg/kg, individual mice, read-out: Plasma Conc

Brain Tissue Homogen. Conc [2, 3]	B:P Ratio [2, 4]	Brain Tissue Conc [2, 4]	Plasma Conc [2, 4]	Average B:P Ratio [2, 5]	Brain Tissue Homogen. Conc [2, 6]	Plasma Conc [2, 7]	Kp at 1 h [2, 8]	Kp at 3 h [2, 9]	Kp at 3 h [2, 10]	concentration at 1 h [2, 11]	Compound	Adverse effects after intraperitoneal administration [1]	other results
41.6 µg/mL and 122 µg/mL and 25.2 µg/mL	0.58 and 0.99 and 0.34	208 µg/mL and 610 µg/mL and 126 µg/mL	614 ng/mL and 369 ng/mL	0.638	26.3 µg/mL and 12.2 µg/mL and 6.22 µg/mL	202 ng/mL and 108 ng/mL and 63.1 ng/mL	0.638 ± 0.33	0.65	0.57 ± 0.079	359 ng/mL	COCCN(CCOC)c1ccc(C(C)c2ccc(N(CCOC)CCOC)cc2)cc1 [Compound-2, 4,4′-(ethane-1,1-diyl)bis(N,N-bis(2-methoxyethyl)aniline)]	No adverse effects were observed	B:P Ratio [2, 7]: 0.56 and 0.49; Brain Tissue Conc [2, 7]: 132 µg/mL and 61.0 µg/mL and 31.1 µg/mL; Average B:P Ratio ([2]; 3.0 hr after IP dosing at 50 mg/kg, mean of mice (Compound-3: one animal only), 50 mg/kg): 0.570
2.87 µg/mL and 2.24 µg/mL	0.27 and 0.36	14.4 µg/mL and 11.2 µg/mL	52.6 ng/mL and 30.9 ng/mL	0.328	BLQ	2.02 ng/mL and 1.67 ng/mL	0.328 ± 0.048	1.14	1.14	31.8 ng/mL	CC(c1ccc(N(CCO)CCO)cc1)c1ccc(N(CCO)CCO)cc1 [Compound-3, 2,2′,2″,2′″-((ethane-1,1-diylbis(4,1-phenylene))bis(azanetriyl))-tetraethanol]	No adverse effects were observed	Average B:P Ratio ([2]; 3.0 hr after IP dosing at 50 mg/kg, mean of mice (Compound-3: one animal only)): 1.14; concentration at 1 h ([2]; brain homogenate, 50 mg/kg, 1.0 hr after IP dosing at 50 mg/kg, individual fasted male CD-1 mice, read-out: Brain Tissue Homogen. Conc): 2210 ng/mL; concentration at 3 h ([2]; brain homogenate, 50 mg/kg, 3.0 hr after IP dosing at 50 mg/kg, individual fasted male CD-1 mice, BLQ = below 0.5 ng/mL, read-out: Brain Tissue Homogen. Conc): 611 ng/mL; concentration at 1 h ([2]; brain, 50 mg/kg, 1.0 hr after IP dosing at 50 mg/kg, individual mice, read-out: Brain Tissue Conc): 11100 ng/mL; concentration at 3 h ([2]; brain, 50 mg/kg, 3.0 hr after IP dosing at 50 mg/kg, individual mice, read-out: Brain Tissue Conc): 3060 ng/mL; Kp at 1 h ([2]; 50 mg/kg, 1.0 hr after IP dosing at 50 mg/kg, individual mice, read-out: B:P Ratio): 0.35; concentration at 3 h ([2]; plasma, 50 mg/kg, 3.0 hr after IP dosing at 50 mg/kg, individual mice, read-out: Plasma Conc): 2.67 ng/mL
